The values below come from patent EP2951180B1, “2,6,7,8 SUBSTITUTED PURINES AS HDM2 INHIBITORS” (Merck Sharp & Dohme Corp., priority 2013, dated 2014).

As a reminder, the IC50 is the concentration needed to halve the response being measured.

The structures appear in SMILES notation.

This experiment deals with T1, HDM2 (Homo sapiens, UniProt Q00987).
T1 construct: Thioredoxin (N); made in house; host or cells: E. coli strain BL21(DE3)Rosetta
T1 sequence (Q00987 17-125): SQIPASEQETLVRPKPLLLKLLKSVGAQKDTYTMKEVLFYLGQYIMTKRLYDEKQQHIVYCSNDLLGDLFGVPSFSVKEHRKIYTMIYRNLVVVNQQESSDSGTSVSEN
Kind of experiment: HDM2 FRET assay (inhibition of binding of FITC labeled p53-pocket peptide to HDM2). The settings on record: Table 11; read-out: FRET IC50. Put shortly: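 Signal is read as the 520/495 nm emission ratio and converted to percent inhibition; nonlinear sigmoidal regression yields IC50. The assay mixes HDM2 (0.5 nM), FITC-p53 peptide (3 nM) and Tb anti-His antibody (0.25 nM) at 0.1% DMSO.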
Turning to `Cc1noc(C(C)Nc2nc3nc(-c4noc(=O)[nH]4)nc(N[C@H](C)C4CCC4)c3n2C[C@H]2CC[C@H](C)CC2)n1` (stereo partly drawn) [Example 11.90, 3-(6-{[(1R)-1-cyclobutylethyl]amino}-7-[(trans-4-methylcyclohexyl)methyl]-8-{[1-(3-methyl-1,2,4-oxadiazol-5-yl)ethyl]amino} -7H-purin-2-yl)-1,2,4-oxadiazol-5(2H)-one], the IC50 is 4.04 nM.
Consider `CC(Nc1nc2nc(-c3noc(=O)[nH]3)nc(N[C@H](C)C3CCC3)c2n1C[C@H]1CC[C@H](C)CC1)c1cncnc1` (stereo partly drawn) [Example 11.92, 3-(6-{[(1R)-1-cyclobutylethyl]amino}-7-[(trans-4-methylcyclohexyl)methyl]-8-[(1-pyrimidin-5-ylethyl)amino]-7H-purin-2-yl)-1,2,4-oxadiazol-5(2H)-one], for which the IC50 came out at 11.7 nM.
To `C[C@@H]1COCCN1c1nc2nc(-c3n[nH]c(=O)o3)nc(N[C@H](C)C3CCC3)c2n1C[C@H]1CC[C@H](C)CC1` [Example 11.97, 5-(6-{[(1R)-1-cyclobutylethyl]amino}-7-[(trans-4-methylcyclohexyl)methyl]-8-[(3R)-3-methylmorpholin-4-yl]-7H-purin-2-yl)-1,3,4-oxadiazol-2(3H)-one] belongs 1.94 nM.
Take `C[C@@H](Nc1nc(-c2noc(=O)[nH]2)nc2nc(N3CCOCC3(C)C)n(C[C@H]3CC[C@H](C)CC3)c12)C1CCC1` [Example 11.98, 3-(6-{[(1R)-1-cyclobutylethyl]amino}-8-(3,3-dimethylmorpholin-4-yl)-7-[(trans-4-methylcyclohexyl)methyl]-7H-purin-2-yl)-1,2,4-oxadiazol-5(4H)-one]: the IC50 was found to be 2.52 nM.
For `C[C@@H](Nc1nc(-c2noc(=O)[nH]2)nc2nc(N3CCOCC3c3ccc(Cl)cc3)n(C[C@H]3CC[C@H](C)CC3)c12)C1CCC1` (stereo partly drawn) [Example 11.99, 3-{8-[3-(4-chlorophenyl)morpholin-4-yl]-6-{[(1R)-1-cyclobutylethyl]amino}-7-[(trans-4-methylcyclohexyl)methyl]-7H-purin-2-yl}-1,2,4-oxadiazol-5(4H)-one], the IC50 was determined as 3.43 nM.
For the compound `C[C@@H](Nc1nc(-c2noc(=O)[nH]2)nc2nc(N3CCOCC3c3ccccc3Cl)n(C[C@H]3CC[C@H](C)CC3)c12)C1CCC1` (stereo partly drawn) [Example 11.100, 3-{8-[3-(2-chlorophenyl)morpholin-4-yl]-6-{[(1R)-1-cyclobutylethyl]amino}-7-[(trans-4-methylcyclohexyl)methyl]-7H-purin-2-yl}-1,2,4-oxadiazol-5(4H)-one], the IC50 stood at 0.936 nM.
As for `C[C@@H](Nc1nc(-c2noc(=O)[nH]2)nc2nc(N3CCOC[C@H]3Cc3ccccc3)n(C[C@H]3CC[C@H](C)CC3)c12)C1CCC1` [Example 11.101, 3-{8-[(3R)-3-benzylmorpholin-4-yl]-6-{[(1R)-1-cyclobutylethyl]amino}-7-[(trans-4-methylcyclohexyl)methyl]-7H-purin-2-yl}-1,2,4-oxadiazol-5(4H)-one], the IC50 came to 16.2 nM.
In the case of `COC1(C)CN(c2nc3nc(-c4noc(=O)[nH]4)nc(N[C@H](C)C4CCC4)c3n2C[C@H]2CC[C@H](C)CC2)C1` [Example 11.102, 3-(6-{[(1R)-1-cyclobutylethyl]amino}-8-(3-methoxy-3-methylazetidin-1-yl)-7-[(trans-4-methylcyclohexyl)methyl]-7H-purin-2-yl)-1,2,4-oxadiazol-5(2H)-one] it was 20.8 nM.
On to `C[C@@H](Nc1nc(-c2noc(=O)[nH]2)nc2nc(N3CC(C)(O)C3)n(C[C@H]3CC[C@H](C)CC3)c12)C1CCC1` [Example 11.103, 3-(6-{[(1R)-1-cyclobutylethyl]amino}-8-(3-hydroxy-3-methylazetidin-1-yl)-7-[(trans-4-methylcyclohexyl)methyl]-7H-purin-2-yl)-1,2,4-oxadiazol-5(2H)-one], for which the IC50 was 36.2 nM.
For the compound `C[C@@H](Nc1nc(-c2noc(=O)[nH]2)nc2nc(N3CCOCC(F)(F)C3)n(C[C@H]3CC[C@H](C)CC3)c12)C1CCC1` [Example 11.104, 3-(6-{[(1R)-1-cyclobutylethyl]amino}-8-(6,6-difluoro-1,4-oxazepan-4-yl)-7-[(trans-4-methylcyclohexyl)methyl]-7H-purin-2-yl)-1,2,4-oxadiazol-5(2H)-one], the IC50 came out at 9.24 nM.
With `C[C@@H](Nc1nc(-c2noc(=O)[nH]2)nc2nc(N3CCCOCC3)n(C[C@H]3CC[C@H](C)CC3)c12)C1CCC1` [Example 11.105, 3-[6-{[(1R)-1-cyclobutylethyl]amino}-7-[(trans-4-methylcyclohexyl)methyl]-8-(1,4-oxazepan-4-yl)-7H-purin-2-yl]-1,2,4-oxadiazol-5(2H)-one], the IC50 turned out to be 42.6 nM.
For `C[C@H](Nc1nc2nc(-c3noc(=O)[nH]3)nc(N[C@H](C)C3CCC3)c2n1C[C@H]1CC[C@H](C)CC1)c1cccc(F)c1` [Example 11.106, 3-(6-{[(1R)-1-cyclobutylethyl]amino}-8-{[(1S)-1-(3-fluorophenyl)ethyl]amino}-7-[(trans-4-methylcyclohexyl)methyl]-7H-purin-2-yl)-1,2,4-oxadiazol-5(2H)-one], the IC50 worked out at 3.22 nM.
In the case of `COC(C)(C)C1CCCN1c1nc2nc(-c3noc(=O)[nH]3)nc(N[C@H](C)C3CCC3)c2n1C[C@H]1CC[C@H](C)CC1` (stereo partly drawn) [Example 11.107, 3-(6-{[(1R)-1-cyclobutylethyl]amino}-8-[2-(1-methoxy-1-methylethyl)pyrrolidin-1-yl]-7-[(trans-4-methylcyclohexyl)methyl]-7H-purin-2-yl)-1,2,4-oxadiazol-5(2H)-one], the IC50 came out at 0.507 nM.
To `Cc1nonc1C1CCCN1c1nc2nc(-c3noc(=O)[nH]3)nc(N[C@H](C)C3CCC3)c2n1C[C@H]1CC[C@H](C)CC1` (stereo partly drawn) [Example 11.108, 3-(6-{[(1R)-1-cyclobutylethyl]amino}-7-[(trans-4-methylcyclohexyl)methyl]-8-[2-(4-methyl-1,2,5-oxadiazol-3-yl)pyrrolidin-1-yl]-7H-purin-2-yl)-1,2,4-oxadiazol-5(2H)-one] belongs 1.6 nM.
Turning to `Cc1nn(C)cc1CNc1nc2nc(-c3noc(=O)[nH]3)nc(N[C@H](C)C3CCC3)c2n1C[C@H]1CC[C@H](C)CC1` [Example 11.109, 3-(6-{[(1R)-1-cyclobutylethyl]amin ο}-8-{[(1,3-dimethyl-1H-pyrazol-4-yl)methyl]amino} -7-[(trans-4-methylcyclohexyl)methyl]-7H-purin-2-yl)-1,2,4-oxadiazol-5(2H)-one], the IC50 worked out at 55.6 nM.
As to `C[C@@H](Nc1nc(-c2noc(=O)[nH]2)nc2nc(N3CCC[C@H]3c3nnnn3C)n(C[C@H]3CC[C@H](C)CC3)c12)C1CCC1` [Example 11.110, 3-(6-{[(1R)-1-cyclobutylethyl]amino}-7-[(trans-4-methylcyclohexyl)methyl]-8-[(2S)-2-(1-methyl-1H-tetrazol-5-yl)pyrrolidin-1-yl]-7H-purin-2-yl)-1,2,4-oxadiazol-5(2H)-one], the IC50 was determined as 6.76 nM.
Take `Cc1nonc1CNc1nc2nc(-c3noc(=O)[nH]3)nc(N[C@H](C)C3CCC3)c2n1C[C@H]1CC[C@H](C)CC1` [Example 11.111, 3-(6-{[(1R)-1-cyclobutylethyl]amino}-7-[(trans-4-methylcyclohexyl)methyl]-8-{[(4-methyl-1,2,5-oxadiazol-3-yl)methyl]amino}-7H-purin-2-yl)-1,2,4-oxadiazol-5(2H)-one]: the IC50 worked out at 6.34 nM.
On to `C[C@@H](Nc1nc(-c2noc(=O)[nH]2)nc2nc(NCc3c[nH]nc3-c3ccccc3)n(C[C@H]3CC[C@H](C)CC3)c12)C1CCC1` [Example 11.112, 3-(6-{[(1R)-1-cyclobutylethyl]amino}-7-[(trans-4-methylcyclohexyl)methyl]-8-{[(3-phenyl-1H-pyrazol-4-yl)methyl]amino}-7H-purin-2-yl)-1,2,4-oxadiazol-5(2H)-one], for which the IC50 turned out to be 215 nM.
As to `C[C@@H](Nc1nc(-c2noc(=O)[nH]2)nc2nc(N3CCC(C)(O)C3)n(C[C@H]3CC[C@H](C)CC3)c12)C1CCC1` (stereo partly drawn) [Example 11.113, 3-(6-{[(1R)-1-cyclobutylethyl]amino}-8-(3-hydroxy-3-methylpyrrolidin-1-yl)-7-[(trans-4-methylcyclohexyl)methyl]-7H-purin-2-yl)-1,2,4-oxadiazol-5(2H)-one], the IC50 is 57.7 nM.
For `COC1CCN(c2nc3nc(-c4noc(=O)[nH]4)nc(N[C@H](C)C4CCC4)c3n2C[C@H]2CC[C@H](C)CC2)C1` (stereo partly drawn) [Example 11.114, 3-(6-{[(1R)-1-cyclobutylethyl]amino}-8-(3-methoxypyrrolidin-1-yl)-7-[(trans-4-methylcyclohexyl)methyl]-7H-purin-2-yl)-1,2,4-oxadiazol-5(2H)-one], the IC50 is 52.9 nM.
To `CCN(C)c1nc2nc(-c3noc(=O)[nH]3)nc(N[C@H](C)C3CCC3)c2n1C[C@H]1CC[C@H](C)CC1` [Example 11.115, 3-(6-{[(1R)-1-cyclobutylethyl]amino}-8-[ethyl(methyl)amino]-7-[(trans-4-methylcyclohexyl)methyl]-7H-purin-2-yl)-1,2,4-oxadiazol-5(2H)-one] belongs 8.13 nM; to `COCCN(C)c1nc2nc(-c3noc(=O)[nH]3)nc(N[C@H](C)C3CCC3)c2n1C[C@H]1CC[C@H](C)CC1` [Example 11.116, 3-(6-{[(1R)-1-cyclobutylethyl]amino}-8-[(2-methoxyethyl)(methyl)amino]-7-[(trans-4-methylcyclohexyl)methyl]-7H-purin-2-yl)-1,2,4-oxadiazol-5(2H)-one], 21 nM.
With `C[C@@H](Nc1nc(-c2noc(=O)[nH]2)nc2nc(N3CCOCC3c3ccc(Cl)cc3)n(C[C@H]3CC[C@H](C)CC3)c12)C1CCC1` (stereo partly drawn) [Example 11.119, 3-{8-[3-(4-chlorophenyl)morpholin-4-yl]-6-{[(1R)-1-cyclobutylethyl]amino}-7-[(trans-4-methylcyclohexyl)methyl]-7H-purin-2-yl}-1,2,4-oxadiazol-5(4H)-one], the IC50 amounted to 24.8 nM.
